From publication PMC9516332 (Frontiers in Oncology, 2022)

Tests used:
Assay in all cases: Kinase panel profiling at 1 µmol/L (MSA or IMAP), percentage inhibition
Type in all cases: biochemical
[1] = biological target: panel of 255 wild-type kinases (Homo sapiens, UniProt P29376); details: kinase LTK; 1 µmol/L single concentration; read-out: %-inhibition at 1 µmol/L, LTK
[2] = biological target: panel of 255 wild-type kinases (Homo sapiens, UniProt Q86V86); details: kinase PIM3; 1 µmol/L single concentration; read-out: %-inhibition at 1 µmol/L, PIM3
[3] = biological target: T1, panel of 255 wild-type kinases (Homo sapiens, UniProt O15146); details: MUSK; 1 µmol/L single concentration; read-out: %-inhibition, MUSK
T1 sequence (O15146 24-869): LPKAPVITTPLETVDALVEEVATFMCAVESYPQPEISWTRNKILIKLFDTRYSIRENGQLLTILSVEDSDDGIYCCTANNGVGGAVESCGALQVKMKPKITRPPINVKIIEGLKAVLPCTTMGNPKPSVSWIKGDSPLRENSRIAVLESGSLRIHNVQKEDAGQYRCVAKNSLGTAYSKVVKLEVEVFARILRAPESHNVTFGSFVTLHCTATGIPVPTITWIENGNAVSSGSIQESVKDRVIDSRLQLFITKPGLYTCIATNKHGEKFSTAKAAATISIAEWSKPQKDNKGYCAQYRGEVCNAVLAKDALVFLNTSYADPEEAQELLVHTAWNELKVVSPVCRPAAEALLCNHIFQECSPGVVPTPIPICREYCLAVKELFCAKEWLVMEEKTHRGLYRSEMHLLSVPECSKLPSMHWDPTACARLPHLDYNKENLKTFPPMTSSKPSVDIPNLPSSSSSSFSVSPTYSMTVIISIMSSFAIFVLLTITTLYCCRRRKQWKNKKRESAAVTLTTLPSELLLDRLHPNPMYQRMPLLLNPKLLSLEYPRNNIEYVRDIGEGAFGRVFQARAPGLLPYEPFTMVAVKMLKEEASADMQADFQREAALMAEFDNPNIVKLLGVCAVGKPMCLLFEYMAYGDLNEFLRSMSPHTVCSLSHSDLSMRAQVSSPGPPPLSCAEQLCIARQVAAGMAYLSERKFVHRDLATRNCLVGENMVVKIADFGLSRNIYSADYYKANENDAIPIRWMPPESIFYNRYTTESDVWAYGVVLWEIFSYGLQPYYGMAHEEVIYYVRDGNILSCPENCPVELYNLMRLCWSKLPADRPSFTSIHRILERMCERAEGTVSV

[4] = biological target: T2, panel of 255 wild-type kinases (Homo sapiens, UniProt Q13188); details: MST2; 1 µmol/L single concentration; read-out: %-inhibition, MST2
T2 sequence (Q13188 1-491): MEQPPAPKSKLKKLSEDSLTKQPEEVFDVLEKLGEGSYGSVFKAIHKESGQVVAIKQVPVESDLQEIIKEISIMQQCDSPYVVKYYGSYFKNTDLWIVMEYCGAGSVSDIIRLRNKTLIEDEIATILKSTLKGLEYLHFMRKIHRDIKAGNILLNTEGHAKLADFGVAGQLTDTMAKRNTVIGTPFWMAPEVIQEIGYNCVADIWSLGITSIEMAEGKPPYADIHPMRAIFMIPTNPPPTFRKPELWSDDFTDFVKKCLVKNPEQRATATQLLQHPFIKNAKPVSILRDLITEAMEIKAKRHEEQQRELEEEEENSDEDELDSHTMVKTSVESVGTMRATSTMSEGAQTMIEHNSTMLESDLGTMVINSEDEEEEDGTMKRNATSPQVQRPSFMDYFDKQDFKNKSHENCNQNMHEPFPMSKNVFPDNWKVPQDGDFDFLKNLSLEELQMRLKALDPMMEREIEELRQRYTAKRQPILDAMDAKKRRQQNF

[5] = biological target: T3, panel of 255 wild-type kinases (Homo sapiens, UniProt Q16832); details: kinase DDR2; 1 µmol/L single concentration; read-out: %-inhibition at 1 µmol/L, DDR2
T3 sequence (Q16832 22-855): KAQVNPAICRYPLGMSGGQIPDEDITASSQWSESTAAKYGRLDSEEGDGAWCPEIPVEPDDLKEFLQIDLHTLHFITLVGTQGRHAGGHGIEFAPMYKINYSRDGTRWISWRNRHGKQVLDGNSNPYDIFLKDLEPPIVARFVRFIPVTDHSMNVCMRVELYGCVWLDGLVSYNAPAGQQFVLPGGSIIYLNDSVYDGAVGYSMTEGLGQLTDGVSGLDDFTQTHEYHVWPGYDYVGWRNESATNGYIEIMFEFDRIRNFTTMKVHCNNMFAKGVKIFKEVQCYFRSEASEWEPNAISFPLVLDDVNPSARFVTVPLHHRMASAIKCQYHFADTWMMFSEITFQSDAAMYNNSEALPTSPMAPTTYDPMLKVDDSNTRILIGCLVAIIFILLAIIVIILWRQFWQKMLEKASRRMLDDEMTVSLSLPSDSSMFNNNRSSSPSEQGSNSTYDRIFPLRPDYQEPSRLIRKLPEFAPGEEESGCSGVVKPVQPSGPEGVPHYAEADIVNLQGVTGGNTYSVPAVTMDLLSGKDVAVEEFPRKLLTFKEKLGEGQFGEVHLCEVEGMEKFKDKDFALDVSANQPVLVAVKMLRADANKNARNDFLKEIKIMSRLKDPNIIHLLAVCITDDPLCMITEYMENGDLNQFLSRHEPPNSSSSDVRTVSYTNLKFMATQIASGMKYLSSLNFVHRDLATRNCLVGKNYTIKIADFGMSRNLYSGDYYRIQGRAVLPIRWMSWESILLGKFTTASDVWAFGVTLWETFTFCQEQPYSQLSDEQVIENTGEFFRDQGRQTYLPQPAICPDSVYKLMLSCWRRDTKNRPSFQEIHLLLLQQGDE

[6] = biological target: panel of 255 wild-type kinases (Homo sapiens, UniProt P31751); details: AKT2 kinase assay; 1 µmol/L single concentration; read-out: %-inhibition AKT2
[7] = biological target: panel of 255 wild-type kinases (Homo sapiens, UniProt P29597); details: kinase TYK2; 1 µmol/L single concentration; read-out: %-inhibition at 1 µmol/L, TYK2
[8] = biological target: panel of 255 wild-type kinases (Homo sapiens, UniProt P22612); details: kinase PKACγ; 1 µmol/L single concentration; read-out: %-inhibition at 1 µmol/L, PKACγ

SMILES	inhibition at 1 µM [1]	inhibition at 1 µM [2]	inhibition at 1 µM [3]	inhibition at 1 µM [4]	inhibition at 1 µM [5]	inhibition at 1 µM [6]	inhibition at 1 µM [7]	inhibition at 1 µM [8]
CCn1c(=O)c(-c2cc(NC(=O)Nc3ccccc3)c(F)cc2Br)cc2cnc(NC)cc21 [ripretinib]	0.637%	1.11%	11%	0.11%	98%	-5%	4.46%	2.69%
COc1ccc(CN2C3CC2CN(c2ccc(-c4cc(OCC(C)(C)O)cn5ncc(C#N)c45)cn2)C3)cn1 [selpercatinib]	-3%	-2.65%	10%	0.47%	73%	-1.76%	3.39%	-2.63%
Cn1cnc2c(F)c(Nc3ccc(Br)cc3Cl)c(C(=O)NOCCO)cc21 [selumetinib]	53%	-0.0221%	7%	-2.14%	-0.119%	0.316%	-3%	-4%
Cc1cc(Nc2ncnc3ccc(NC4=NC(C)(C)CO4)cc23)ccc1Oc1ccn2ncnc2c1 [tucatinib]	49%	-1.3%	2.26%	-1.17%	10%	-1.46%	4.71%	-0.548%
C=CC(=O)N1CCC([C@@H]2CCNc3c(C(N)=O)c(-c4ccc(Oc5ccccc5)cc4)nn32)CC1 [zanubrutinib]	0.209%	-8%	-1.31%	1.56%	-3.23%	-4%	-2.32%	-4.62%
